Measurements taken from US20180062087A1, “Organic Compound, Organic Semiconductor Material, Organic Thin Film And Method For Producing The Same, Organic Semiconductor Composition, And Organic Semiconductor Device” (Nippon Kayaku Kabushiki Kaisha, priority 2015, published 2018).

Key:
Format in all cases: physicochemical
[1] = Differential scanning calorimetry (transition point, heat resistance); conditions: DSC endothermic peak indicating phase transition; powder in aluminum pan heated up to 550° C.
Protocol: In the following examples, reactions and measurements in an inert gas atmosphere were conducted with use of a solvent obtained by anhydrous distillation, and other reactions and operations were conducted with use of commercial Grade 1 or Special Grade solvents. The reagents were purified, as required, by anhydrous distillation or the like, and otherwise commercially available Grade 1 or Special Grade reagents were employed. In the examples, following analytical instrument and measurement instrument were employed. The nuclear magnetic resonance spectroscopy was conducted by means of LAMBDA-NMR (395.75 MHz, σ value, ppm, internal standard TMS). The differential scanning calorimetry was conducted by means of a differential scanning calorimeter METTLER-TOLED DSC1.
About 2 mg of each organic compound powder was weighed out and fed hermetically in an aluminum pan. Each sample was set on a differential scanning calorimeter and heated up to 550° C.

[2] = Storage stability in a solution state (solution state after one week); conditions: solutions of the solubility test
Excerpt: The organic compound represented by Formula (A) is required to be soluble in an organic solvent. The organic solvent is not particularly limited as far as being capable of dissolving the organic compound represented by Formula (A). Considering environmental problems and other conditions, the organic solvent is preferably and practically a non-halogenated solvent. Further, considering the stability of a solution obtained by dissolving the organic compound represented by Formula (A) in the organic solvent, the organic compound represented by Formula (A) needs to have reasonably high solubility at room temperature. In the organic solvent, the solubility of the organic compound represented by Formula (A) at 25° C. is usually 0.1 mass % or higher, preferably 0.3 mass % or higher, more preferably 0.5 mass % or higher, and further preferably 0.7 mass % or higher. In chloroform, the solubility of the organic compound represented by Formula (A) at 25° C. is usually 0.1 mass % or higher, preferably 0.3 mass % or higher, more preferably 0.5 mass % or higher, and further preferably 0.7 mass % or higher. In toluene, the solubility of the organic compound represented by Formula (A) at 25° C. is usually 0.1 mass % or higher, preferably 0.3 mass % or higher, more preferably 0.5 mass % or higher, and further preferably 0.7 mass % or higher. In tetrahydronaphthalene, the solubility of the organic compound represented by Formula (A) at 25° C. is usually 0.1 mass % or higher, preferably 0.3 mass % or higher, more preferably 0.5 mass % or higher, and further preferably 0.7 mass % or higher.
(§1) About 1 mg of each organic compound powder was weighed and fed into vials, and the weight of the content in each vial was measured precisely. Into these vials, chloroform, toluene, and tetrahydronaphthalene (THN) were added at 25° C. (room temperature). When the added solvent dissolved completely, the mass was measured precisely again. The mass of the organic compound was divided by the total weight of the organic compound and the added solvent, and was multiplied by 100 to obtain solubility. Dissolution or non-dissolution was judged by visual inspection.

[3] = Measurement of solubility in organic solvents at 25° C.; conditions: for Solubility in organic solvent at 25° C., chloroform / Solubility in organic solvent at 25° C., THN / Solubility in organic solvent at 25° C., toluene: visual inspection; for Solubility in organic solvent at 25° C., THN: tetrahydronaphthalene (THN)
Protocol: as §1

Row | Structure (SMILES) | Peak top temperature [1] [°C] | Solution state after one week [2] | Solubility in organic solvent at 25° C., chloroform ([3]; 25° C.) [mass %] | Solubility in organic solvent at 25° C., THN ([3]; 25° C.) [mass %] | Solubility in organic solvent at 25° C., toluene ([3]; 25° C.) [mass %] | Solubility in the organic solvent at 25° C. relative to the organic compound in Comparative example 2 ([3]; at the maximum, versus Comparative example 2) [times] | Solubility compared with the organic compound in Comparative example 1 ([3]; organic solvent, 25° C., versus Comparative example 1)
1 | CCCCCCCCCCc1ccc2c(c1)sc1c3ccc(-c4ccccc4)cc3sc21 [Comp. Ex. 3, reference compound] | ≤ 150 | – | – | – | – | – | –
2 | CCCCc1ccc2sc3c4cc5cc(-c6ccccc6)ccc5cc4sc3c2c1 [Organic compound 4] | 218 | no precipitation | 0.5 | 0.5 | 0.5 | – | –
3 | CCCCCc1ccc(-c2ccc3sc4c5cc6cc(-c7ccccc7)ccc6cc5sc4c3c2)cc1 [Organic compound 9] | 244 | – | – | – | – | – | –
4 | CCCCCCc1ccc2cc3sc4c5cc(-c6ccc(CC)cc6)ccc5sc4c3cc2c1 [Organic compound 8] | 229 | no precipitation | >2 | 1.4 | 0.9 | – | –
5 | CCCCCCCCCCc1ccc2cc3sc4c5cc(-c6ccccc6)ccc5sc4c3cc2c1 [Organic compound 6] | 185 | no precipitation | 0.3 | 0.3 | 0.2 | – | –
6 | CCCCCCCCc1ccc2sc3c4cc5cc(-c6ccccc6)ccc5cc4sc3c2c1 [Organic compound 5] | 186 | no precipitation | 0.4 | 0.4 | 0.4 | – | –
7 | CCCCCCc1ccc2cc3sc4c5cc(-c6ccccc6)ccc5sc4c3cc2c1 [Organic compound 1] | – | – | – | – | – | ≥ 10 | higher solubility
